Assay results as given in patent publication US9731001B2, “Three-dimensional cavities of dendritic cell immunoreceptor (DCIR), compounds binding thereto and therapeutic applications related to inhibition of human immunodeficiency virus type-1 (HIV-1)” (priority 2011, dated 2017).

Tests used:
Format in all cases: cell-based
HIV-1 (NL4-3/Balenv) [1] = test: HIV-1 infection assay on iMDDCs (p24 in supernatant); details: IM-MDDCs, NL4-3balenv 2 h, culture up to 9 days
Protocol: (§1) FIG. 7 is bar graphs showing that selected site A and site B inhibitors decrease HIV-1 binding and infection of IM-MDDCs. Upper panel: IM-MDDCs were treated with two chemical inhibitors directed against site A (A1 and A4) and two inhibitors directed against site B (B1 and B2) (or DMSO) for 10 min at 37° C. Next, cells were pulsed with NL4-3balenv for 60 min at 37° C. and rinsed extensively before measuring p24 content. Lower panel: In some experiments, similarly treated IM-MDDCs were pulsed with NL4-3balenv for 2 h at 37° C., rinsed extensively, and maintained in complete culture medium supplemented with GM-CSF and IL-4 for up to 9 days with medium replenishment every 3 days. Cell-free culture supernatants were quantified by measuring p24 content. Data shown correspond to the means±SEM of 3 independent experiments performed in triplicate. The asterisks denotes statistically significant data (*, P<0.05; **, P<0.01; ***, P<0.001).
(§2) For assessing binding/entry, iMDDCs (3×10^5 cells in a final volume of 300 μl) were pre-treated with 10 μM of different chemical inhibitors for 10 min and exposed to NL4-3/Balenv (30 ng of p24) for 60 min at 37° C. After three washes with PBS, cells were re-suspended in PBS containing 1% BSA. The p24 content was determined by ELISA, while susceptibility of iMDDCs to HIV-1 infection was assessed by initially exposing 3×10^5 cells to NL4-3/Balenv (30 ng) at 37° C. for 2 h. After three washes with PBS, cells were maintained in complete RPMI 1640 supplemented with GM-CSF and IL-4 in 96-well plates, in a final volume of 200 μl. Every 3 days and for a 9-day period, half of the conditioned medium was collected and kept at −20° C. until assayed. Virus production was estimated as above by measuring p24 levels by ELISA.

DCIR = target: T1, DCIR (Homo sapiens, UniProt Q9UMR7); test: HIV-1 binding/entry assay on Raji-CD4-DCIR cells (cell-associated p24); details: 10 μM pre-treatment 10 min; NL4-3 60 min; p24 content
T1 construct: expressed in transfected cells; host or cells: Raji-CD4 (human B cell line stably expressing human CD4), retroviral transduction
T1 sequence (Q9UMR7 1-237): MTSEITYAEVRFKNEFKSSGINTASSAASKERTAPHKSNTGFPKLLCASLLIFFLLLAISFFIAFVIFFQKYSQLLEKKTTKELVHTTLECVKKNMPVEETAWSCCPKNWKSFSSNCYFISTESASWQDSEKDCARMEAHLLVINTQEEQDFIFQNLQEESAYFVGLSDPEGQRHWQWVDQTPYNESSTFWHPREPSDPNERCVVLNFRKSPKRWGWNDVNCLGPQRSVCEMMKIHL
Protocol: FIG. 4 is a bar graph showing that inhibitors decrease HIV-1 binding on DCIR. Raji-CD4-DCIR cells were treated with 10 μM of four site A inhibitors (A1, A2, A3 and A4) and three site B inhibitors (B1, B2 and B3) (or with vehicle (DMSO) only) for 10 min at 37° C. Thereafter, cells were pulsed with NL4-3 for 60 min. After three washes with PBS to remove unadsorbed virus, the abundance of cell-associated viruses was quantified by measuring p24 content. Data shown correspond to the means±SEM of three independent experiments performed with triplicate samples. The asterisk (*) denotes statistically significant data (*, P<0.05, ** P<0.01, *** P<0.001).
(§3) Where indicated, 1×10^6 parental Raji-CD4 cells (DCIR-negative), Raji-CD4-DCIR or Raji-DC-SIGN transfectants were pre-treated with the indicated amount of a chemical inhibitor for 10 min. Cells were then pulsed with NL4-3 (an equivalent of 100 ng of p24) for 60 min at 37° C. The virus-cell mixture was then washed three times with PBS to remove unbound virus and re-suspended in PBS containing 1% BSA. Binding/entry was then determined by the p24 content by ELISA as above. For the infection assay, Raji-CD4 and Raji-CD4-DCIR (1×10^6 cells) were exposed to NL4-3 viral stock (100 ng of p24) for 2 h at 37° C. After three washes with PBS to remove excess virus, cells were maintained in culture for up to 9 days. Cell-free culture supernatants were collected at the indicated time points and assayed for p24 content.

HIV-1 (NL4-3/Balenv) [2] = test: HIV-1 binding assay on iMDDCs (p24); details: IM-MDDCs, 10 μM pre-incubation 10 min, NL4-3balenv 60 min
Protocol: as §1, §2

DC-SIGN = target: T2, DC-SIGN (Homo sapiens, UniProt Q9NNX6); test: HIV-1 binding to Raji-DC-SIGN cells (p24); details: NL4-3 60 min
T2 construct: expressed in transfected cells; host or cells: Raji cells stably transfected with a DC-SIGN plasmid
T2 sequence (Q9NNX6 1-404): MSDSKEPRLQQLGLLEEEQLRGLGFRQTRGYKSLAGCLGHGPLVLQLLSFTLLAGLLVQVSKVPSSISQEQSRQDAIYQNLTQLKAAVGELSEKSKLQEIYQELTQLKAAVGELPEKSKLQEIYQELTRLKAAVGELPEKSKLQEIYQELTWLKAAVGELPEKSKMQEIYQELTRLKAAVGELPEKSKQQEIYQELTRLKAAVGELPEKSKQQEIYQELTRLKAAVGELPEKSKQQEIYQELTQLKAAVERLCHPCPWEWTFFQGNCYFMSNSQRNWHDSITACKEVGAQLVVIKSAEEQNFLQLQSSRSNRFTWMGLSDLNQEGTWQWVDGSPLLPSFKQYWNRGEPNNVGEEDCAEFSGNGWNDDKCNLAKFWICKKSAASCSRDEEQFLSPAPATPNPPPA
Protocol: Raji-DC-SIGN cells were treated for 10 min at 37° C. with inhibitors A1 and A4 directed against the site A and B1 and B2 directed against the site B, or with DMSO. Afterwards, cells were pulsed with NL4-3 for 60 min, rinsed thrice with PBS were made to remove unadsorbed virus, and cell-associated viruses were quantified by measuring p24 content. Data shown correspond to the means±SEM of 3 independent experiments performed in triplicate.
as §3

HIV-1 (NL4-3) = test: HIV-1 infection assay on Raji-CD4 and Raji-CD4-DCIR cells (p24 in supernatant); details: Raji-CD4 vs Raji-CD4-DCIR, NL4-3 2 h, culture 3 d
Protocol: FIG. 5 is a bar graph showing that specific inhibitors against the site A (A1, A4) and site B (B1, B2) decrease infectivity of Raji-CD4-DCIR. Raji-CD4 and Raji-CD4-DCIR were treated with the inhibitors selected following experiments described in FIG. 4, or DMSO. Cells were then exposed to NL4-3 for 2 h, rinsed and maintained in culture for 3d. Cell-free culture supernatants were collected and assayed for p24 content. Data shown correspond to the means±SEM from 3 independent experiments performed with triplicate samples. The asterisk (*) denotes statistically significant data (*, P<0.05, ** P<0.01, *** P<0.001).
as §3

c1ccc(-c2ccc(-c3ccccn3)nn2)nc1 [Compound A4, 3,6-di-2 pyridinylpyridazine]
productive infection of DCs (HIV-1 (NL4-3/Balenv) [1]): blocked productive infection
HIV-1 attachment to Raji-CD4-DCIR cells (DCIR): statistically significant decrease
HIV-1 binding to DCs (HIV-1 (NL4-3/Balenv) [2]): decreased significantly
HIV-1 binding to DC-SIGN (DC-SIGN): do not block HIV-1 attachment to DC-SIGN
HIV-1 production (HIV-1 (NL4-3)): decreased HIV-1 production only in DCIR-expressing cells
